The subject of the assay is L1210 leukemia ip in BDF1 mice, survival T/C. Nature of the assay: NCI In Vivo Anticancer Drug Screen. Data for tumor model L1210 Leukemia (intraperitoneal) in B6D2F1 (BDF1) mice. The note with it: endpoint: mean survival time, higher = longer survival. In a few lines: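 Each compound was tested against a transplantable tumor grown in mice. The endpoint was survival, with treated animals benchmarked against vehicle controls as a simple ratio.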

Where [1] appears, read: dose: 100.0 mg/kg/injection, schedule: Q04DX003 (ip), vehicle: saline.
[2] abbreviates: dose: 200.0 mg/kg/injection, schedule: Q04DX003 (ip), vehicle: saline.
The mark [3] stands for this setting: dose: 400.0 mg/kg/injection, schedule: Q04DX003 (ip), vehicle: saline.
Where [4] appears, read: dose: 75.0 mg/kg/injection, schedule: Q01DX001 (ip), vehicle: carboxymethylcellulose (CMC).
Where [5] appears, read: dose: 150.0 mg/kg/injection, schedule: Q01DX001 (ip), vehicle: carboxymethylcellulose (CMC).
The mark [6] stands for this setting: dose: 100.0 mg/kg/injection, schedule: Q01DX009 (ip), vehicle: Klucel (hydroxypropylcellulose) (HPC).
[7] abbreviates: dose: 200.0 mg/kg/injection, schedule: Q01DX009 (ip), vehicle: Klucel (hydroxypropylcellulose) (HPC).
The mark [8] stands for this setting: dose: 100.0 mg/kg/injection, schedule: Q04DX003 (ip), vehicle: Klucel (hydroxypropylcellulose) (HPC).
Where [9] appears, read: dose: 200.0 mg/kg/injection, schedule: Q04DX003 (ip), vehicle: Klucel (hydroxypropylcellulose) (HPC).
The mark [10] stands for this setting: dose: 400.0 mg/kg/injection, schedule: Q04DX003 (ip), vehicle: Klucel (hydroxypropylcellulose) (HPC).

“And” between values parts separate entries of the source, which are not always exact repeats. Equal values may be shown once. Toxic doses and inconclusive results are not listed.

Consider `O=C(/C=C/c1ccccc1)NC(=S)NC1CCCCC1`, for which the T/C runs as follows: (dose: 50.0 mg/kg/injection, schedule: Q01DX009 (ip), vehicle: carboxymethylcellulose (CMC)) 101 % of control and 102 % of control; (dose: 50.0 mg/kg/injection, schedule: Q04DX003 (ip), vehicle: carboxymethylcellulose (CMC)) 103 % of control; (dose: 100.0 mg/kg/injection, schedule: Q01DX009 (ip), vehicle: carboxymethylcellulose (CMC)) 97 % of control and 90 % of control; (dose: 100.0 mg/kg/injection, schedule: Q04DX002 (ip), vehicle: carboxymethylcellulose (CMC)) 100 % of control and 106 % of control; (dose: 100.0 mg/kg/injection, schedule: Q04DX003 (ip), vehicle: carboxymethylcellulose (CMC)) 96 % of control; (dose: 200.0 mg/kg/injection, schedule: Q01DX009 (ip), vehicle: carboxymethylcellulose (CMC)) 93 % of control and 91 % of control. For the same compound, the T/C by setting is: (dose: 200.0 mg/kg/injection, schedule: Q04DX002 (ip), vehicle: carboxymethylcellulose (CMC)) 103 % of control and 91 % of control; (dose: 200.0 mg/kg/injection, schedule: Q04DX003 (ip), vehicle: carboxymethylcellulose (CMC)) 96 % of control; (dose: 400.0 mg/kg/injection, schedule: Q04DX002 (ip), vehicle: carboxymethylcellulose (CMC)) 87 % of control.

Take `BrC1=C(Br)CCCC1`: the T/C is 91 % of control under setting [1], 91 % of control under setting [2] and 93 % of control under setting [3].

On to `C[N+]1=C2CCCCCC2=C(N)CC1`, for which the T/C (dose: 6.25 mg/kg/injection, schedule: Q01DX009 (ip), vehicle: saline) was 104 % of control; the T/C (dose: 12.5 mg/kg/injection, schedule: Q01DX009 (ip), vehicle: saline) is 100 % of control; the T/C (dose: 25.0 mg/kg/injection, schedule: Q01DX009 (ip), vehicle: saline) is 100 % of control.

Take `CC(=O)CC1CCC(CC(C)=O)CC1` (stereo not drawn): the T/C runs as follows: (dose: 100.0 mg/kg/injection, schedule: Q04DX002 (ip), vehicle: other) 98 % of control; (dose: 200.0 mg/kg/injection, schedule: Q04DX002 (ip), vehicle: other) 90 % of control; (dose: 400.0 mg/kg/injection, schedule: Q04DX002 (ip), vehicle: other) 98 % of control.

In the case of `C/C=C/C(C1=C(O)c2ccccc2C(=O)C1=O)C1=C(O)c2ccccc2C(=O)C1=O`, the T/C was 100 % of control under setting [4]; 118 % of control under setting [5]; 108 % of control (dose: 300.0 mg/kg/injection, schedule: Q01DX001 (ip), vehicle: carboxymethylcellulose (CMC)).

In the case of `O=C(NCCBr)c1cccc2ccccc12`, the T/C reads like this: under setting [6], 106 % of control; under setting [7], 97 % of control; (dose: 400.0 mg/kg/injection, schedule: Q01DX009 (ip), vehicle: Klucel (hydroxypropylcellulose) (HPC)) 95 % of control.

Regarding `CCC(O)C(CCN(C)C)(CN(C)C)c1ccccc1` (stereo not drawn), the T/C is 94 % of control under setting [4] and 102 % of control under setting [5].

Consider `CC12CCC(O)(CC1)CC2(O)c1ccccc1` (stereo not drawn), for which the T/C was 102 % of control (dose: 100.0 mg/kg/injection, schedule: Q04DX002 (ip), vehicle: saline); 95 % of control (dose: 200.0 mg/kg/injection, schedule: Q04DX002 (ip), vehicle: saline); 98 % of control (dose: 400.0 mg/kg/injection, schedule: Q04DX002 (ip), vehicle: saline).

In the case of `FC(F)(F)c1ccc2nc(CI)c(CI)nc2c1`, the T/C runs as follows: (dose: 6.0 mg/kg/injection, schedule: Q01DX009 (ip), vehicle: other) 98 % of control; (dose: 12.0 mg/kg/injection, schedule: Q01DX009 (ip), vehicle: other) 91 % of control; (dose: 12.5 mg/kg/injection, schedule: Q01DX009 (ip), vehicle: saline with Tween-80) 88 % of control; (dose: 25.0 mg/kg/injection, schedule: Q01DX009 (ip), vehicle: other) 95 % of control; (dose: 25.0 mg/kg/injection, schedule: Q04DX003 (ip), vehicle: other) 94 % of control; (dose: 50.0 mg/kg/injection, schedule: Q04DX003 (ip), vehicle: other) 87 % of control. For the setting “dose: 100.0 mg/kg/injection, schedule: Q04DX003 (ip), vehicle: other”, the T/C is 97 % of control.

As for `COc1cc(C(=O)O)ccc1[N+](=O)[O-]`, the T/C is, setting by setting: (dose: 100.0 mg/kg/injection, schedule: Q04DX003 (ip), vehicle: saline with Tween-80) 102 % of control; (dose: 200.0 mg/kg/injection, schedule: Q04DX003 (ip), vehicle: saline with Tween-80) 102 % of control; (dose: 400.0 mg/kg/injection, schedule: Q04DX003 (ip), vehicle: saline with Tween-80) 96 % of control.

For `NC(N)=Nc1ccccc1` (tested in a mixture with another compound), the T/C runs as follows: under setting [1], 100 % of control; under setting [2], 100 % of control.

Turning to `C=CS(=O)(=O)c1ccc(N)cc1`, the T/C was 103 % of control under setting [6] and 95 % of control under setting [7].

On to `CCCCCCCCCCN1C(=O)c2ccccc2S1(=O)=O`, for which the T/C is 95 % of control (dose: 100.0 mg/kg/injection, schedule: Q01DX009 (ip), vehicle: saline); 97 % of control under setting [1]; 97 % of control (dose: 200.0 mg/kg/injection, schedule: Q01DX009 (ip), vehicle: saline); 100 % of control under setting [2]; 97 % of control (dose: 400.0 mg/kg/injection, schedule: Q01DX009 (ip), vehicle: saline); 95 % of control under setting [3].

For `COc1ccc(OC)c2c1C=CCC2`, the T/C reads like this: (dose: 100.0 mg/kg/injection, schedule: Q01DX001 (ip), vehicle: carboxymethylcellulose (CMC)) 96 % of control; (dose: 200.0 mg/kg/injection, schedule: Q01DX001 (ip), vehicle: carboxymethylcellulose (CMC)) 91 % of control; (dose: 400.0 mg/kg/injection, schedule: Q01DX001 (ip), vehicle: carboxymethylcellulose (CMC)) 104 % of control.

With `Nc1c(I)cc([N+](=O)[O-])cc1I`, the T/C under setting [8] was 95 % of control, the T/C under setting [9] was 93 % of control and the T/C under setting [10] was 98 % of control.

As to `Clc1ccc2c(c1)ncn1nnnc21`, the T/C (dose: 50.0 mg/kg/injection, schedule: Q04DX003 (ip), vehicle: saline) is 95 % of control; the T/C under setting [1] was 104 % of control; the T/C under setting [2] was 93 % of control.

Consider `CCOC1(c2ccccc2)C(c2ccccc2)N1C(=O)c1ccc([N+](=O)[O-])cc1` (stereo not drawn), for which the T/C by setting is: under setting [8], 92 % of control; under setting [9], 91 % of control; under setting [10], 92 % of control.

Turning to `O=C(/C=C\c1ccc(/C=C/C(=O)Nc2cccc(C3=NCCN3)c2)cc1)Nc1cccc(C2=NCCN2)c1`, the T/C is, setting by setting: (dose: 3.75 mg/kg/injection, schedule: Q01DX Z (ip), vehicle: saline) 107 % of control; (dose: 7.5 mg/kg/injection, schedule: Q01DX Z (ip), vehicle: saline) 120 % of control; (dose: 15.0 mg/kg/injection, schedule: Q01DX Z (ip), vehicle: saline) 122 % of control; (dose: 30.0 mg/kg/injection, schedule: Q01DX Z (ip), vehicle: saline) 184 % of control; (dose: 60.0 mg/kg/injection, schedule: Q01DX Z (ip), vehicle: saline) 189 % of control; (dose: 120.0 mg/kg/injection, schedule: Q01DX Z (ip), vehicle: saline) 182 % of control. For the same compound, the T/C (dose: 240.0 mg/kg/injection, schedule: Q01DX Z (ip), vehicle: saline) was 167 % of control.

The record behind these values is PubChem BioAssay AID248 (DTP/NCI, 2004).
